Assays:
[1] = target: T1, human Melanin concentrating hormone receptor 1 (MCH1r) (Homo sapiens, UniProt Q99705); assay: MCH1 receptor radioligand binding (125I-MCH, CHO-K1 cell membranes); conditions: CHO-K1 membranes expressing human MCH1r, 30° C., 60 minutes, read-out: IC50 in human MCHr binding assay
T1 construct: expressed in transfected cells; host or cells: CHO-K1
Method: MCH1 Receptor Radioligand Binding.
Assays were performed on membranes prepared from CHO—K1 cells expressing the human Melanin concentrating hormone receptor 1 (MCH1r). Assays were performed in a 96-well plate format in a final reaction volume of 200 μl per well. Each well contained 6 μg of membrane proteins diluted in binding buffer (50 mM Tris, 3 mM MgCl2, 0.05% bovine serum albumin and the radioligand ^125I-MCH (IM344 Amersham) was added to give 10 000 cpm (counts per minute) per well. Each well contained 2 μl of the appropriate concentration of competitive antagonist prepared in DMSO and left to stand at 30° C. for 60 minutes. Non-specific binding was determined as that remaining following incubation with 1 μM MCH (Melanin concentrating hormone, H-1482 Bachem). The reaction was terminated by transfer of the reaction to GF/A filters using a Micro96 Harvester (Skatron Instruments, Norway). Filters were washed with assay buffer. Radioligand retained on the filters was quantified using al450 Microbeta TRILUX (Wallac, Finland).
Non-specific binding was subtracted from all values determined. Maximum binding was that determined in the absence of any competitor following subtraction of the value determined for non-specific binding. Binding of compounds at various concentrations was plotted according to the equation
and IC50 estimated where A is the bottom plateau of the curve i.e. the final minimum y value B is the top of the plateau of the curve i.e. the final maximum y value C is the x value at the middle of the curve. This represents the log EC50 value when A+B=100 D is the slope factor. x is the original known x values. y is the original known y values.

recombinant hMCHr = target: T2, recombinant hMCHr (Homo sapiens, UniProt Q99705); assay: MCH1 functional assay ([35S]GTPγS binding, membranes with recombinant hMCHr); assay type: biochemical; conditions: ED80 concentration of MCH, 45 min at 30° C., read-out: IC50 of antagonists in MCH1 functional assay
T2 construct: purchased Euroscreen
T2 sequence (Q99705 whole entry): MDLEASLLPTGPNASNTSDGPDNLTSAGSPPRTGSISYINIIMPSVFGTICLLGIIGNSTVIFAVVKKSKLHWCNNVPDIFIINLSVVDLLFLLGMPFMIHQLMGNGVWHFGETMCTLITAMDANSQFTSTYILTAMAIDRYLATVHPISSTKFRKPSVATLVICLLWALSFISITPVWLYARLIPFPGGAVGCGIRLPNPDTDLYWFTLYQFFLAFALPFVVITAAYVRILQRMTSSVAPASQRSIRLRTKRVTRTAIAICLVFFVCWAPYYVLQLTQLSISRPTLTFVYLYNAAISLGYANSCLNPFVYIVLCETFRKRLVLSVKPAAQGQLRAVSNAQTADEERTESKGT
Method: Membranes expressing recombinant hMCHr (5.45 pmol/mg protein; Euroscreen) were prepared in assay buffer (50 mM HEPES, 100 mM NaCl, 5 mM MgCl2, 1 mM EDTA, 200 μM DTT, 20 μM GDP (Sigma) containing 0.1 μg/ml BSA, pH7.4) before assay. The assays were performed using membranes at 6 μg/well in an assay volume of 200 μl and the appropriate concentrations of compounds prepared in DMSO. The reaction was started by addition of 0.056 nM [^35S]GTPγS (Specific activity >1000 Ci/mmol; Amersham) and an ED80 concentration of MCH (determined for each membrane and each MCH batch). Non-specific binding was determined using 20 μM non-radiolabelled GTPγS. Plates were incubated for 45 min at 30° C. Free and bound GTPγS were separated by filtration binding using GF/B filter mats presoaked in wash buffer (50 mM Tris, 5 mM MgCl2, 50 mM NaCl, pH 7.4) using a Micro96 cell harvester (Skatron Instruments) and the filters then dried at 50° C. before counting using al450 Microbeta TRILUX (Wallac).
Data are means ±SD for experiments performed in triplicate. IC50 values of antagonists were determined using non-linear regression analysis of concentration response curves using Activity Base.

Male Wistar-Hanover rats = assay: Pharmacodynamic effect in rat (food intake and body weight after fasting); assay type: in vivo; conditions: 16.7 μmol/kg i.p. amorphous nanoparticle formulation, time interval 0-4 h
Method: Pharmacodynamic Effect in Rat
Male Wistar-Hanover rats (Charles River, 300-350 grams) were acclimated to individually housing in conventional cages (Makrolon III) with 12:12 hour light-dark photoperiod (lights on at 06.00) in a temperature (20-22° C.) and humidity (40-60%) controlled room. R-3 lab chow (Lactanin, Vadstena, Sweden) and tap water from bottles were allowed ad libidum. At 16.00 on the day before experiments, animals were weighed & food (but not water) was removed. At 08.00 on experiment day, animals were weighed & compound (i.p. amorphous nanoparticle formulation, 5 ml/kg) or vehicle (3-10% DMA depending on compound formulation) administered. Animals were returned to their home cages & given access to a weighed amount of food. This food was then re-weighed 1, 2, 4, 6 & 24 hours later, and food consumption calculated by the difference from initial food weight.
Animals were further weighed at the 24-hr timepoint, and change in body weight over the treatment period was calculated.

T1 sequence (Q99705 whole entry): as above

Compound	IC50 [1] [nM]	IC50 (recombinant hMCHr) [nM]	reduced food intake (Male Wistar-Hanover rats) [%]
O=C(COc1cccc(Cl)c1)NC1CCN(Cc2ccc(-c3ccc(Cl)cc3)o2)CC1 [Example 8, 2-(3-chlorophenoxy)-N-(1-{[5-(4-chlorophenyl)-2-furyl]methyl}piperidin-4-yl)acetamide]	105	111	–
O=C(CCc1cccc(Cl)c1)NC1CCN(Cc2ccn(-c3ccc(C(F)(F)F)cc3)c2)CC1 [Example 29, 3-(3-chlorophenyl)-N-[1-({1-[4-(trifluoromethyl)phenyl]-1H-pyrrol-3-yl}methyl)piperidin-4-yl]propanamide]	66	66	–
O=C(COc1cccc(Cl)c1)NC1CN(Cc2ccn(-c3ccc(C(F)(F)F)cc3)c2)C1 [Example 41, 2-(3-chlorophenoxy)-N-[1-({1-[4-(trifluoromethyl)phenyl]-1H-pyrrol-3-yl}methyl)azetidin-3-yl]acetamide]	39	–	–
N#Cc1ccccc1OCC(=O)NC1CCN(Cc2ccn(-c3ccc(C(F)(F)F)cc3)c2)CC1 [Example 34, 2-(2-cyanophenoxy)-N-[1-({1-[4-(trifluoromethyl)phenyl]-1H-pyrrol-3-yl}methyl)piperidin-4-yl]acetamide]	–	–	20

The remaining molecules from weak to strong by IC50 [1], led by results:

IC50 [1] [nM]	IC50 (recombinant hMCHr) [nM]	Compound	reduced food intake (Male Wistar-Hanover rats) [%]
167	45	COc1ccc(-n2ccc(CN3CCC(NC(=O)COc4cccc(Cl)c4)CC3)c2)cc1 [Example 3, 2-(3-chlorophenoxy)-N-({[1-(4-methoxyphenyl)-1H-pyrrol-3-yl]methyl}piperidin-4-yl)acetamide]	–
27	–	O=C(COc1ccc(F)c(F)c1)NC1CCN(Cc2ccn(-c3ccc(C(F)(F)F)cc3)c2)C1 (stereo not drawn) [Example 44, 2-(3,4-difluorophenoxy)-N-[1-({1-[4-(trifluoromethyl)phenyl]-1H-pyrrol-3-yl}methyl)pyrrolidin-3-yl]acetamide]	–

From US20080300232A1, “N-Piperidine Derivatives as Ccr3 Modulators” (ASTRAZENECA AB, priority 2004, published 2008)
